One block for each compound: values may come before it.
Experiments:
[1] = biological target: Rho-associated protein kinase 1 (Homo sapiens, UniProt Q13464); test: Inhibition of human recombinant ROCK1 kinase expressed in insect Sf9 cells by SPA
[2] = Oral bioavailability in Sprague-Dawley rat at 1.2 mg/kg; assay type: ADME, organism-based; conditions: in vivo
[3] = test system: Rattus norvegicus; test: (§1) Half life in Sprague-Dawley rat at 1.1 mg/kg, iv; assay type: ADME, organism-based; parameters: dose 1.1 mg/kg, route intravenous; conditions: in vivo
[4] = Oral bioavailability in Sprague-Dawley rat at 1.1 mg/kg; assay type: ADME, organism-based; conditions: in vivo
[5] = biological target: Cytochrome P450 3A4 (Homo sapiens, UniProt P08684); test: Inhibition of CYP3A4; assay type: ADME
[6] = test system: Rattus norvegicus; test: (§2) Volume of distribution at steady state in Sprague-Dawley rat at 1.1 mg/kg, iv; assay type: ADME, organism-based; parameters: dose 1.1 mg/kg, route intravenous; conditions: in vivo
[7] = biological target: Cytochrome P450 2D6 (Homo sapiens, UniProt P10635); test: Inhibition of CYP2D6; assay type: ADME
[8] = biological target: Cytochrome P450 2C9 (Homo sapiens, UniProt P11712); test: Inhibition of CYP2C9; assay type: ADME
[9] = Half life in Sprague-Dawley rat at 1.2 mg/kg, iv; assay type: ADME, organism-based; parameters: dose 1.2 mg/kg, route intravenous; conditions: in vivo
[10] = Volume of distribution at steady state in Sprague-Dawley rat at 1.2 mg/kg, iv; assay type: ADME, organism-based; parameters: dose 1.2 mg/kg, route intravenous; conditions: in vivo, read-out: Vdss
[11] = Clearance in Sprague-Dawley rat at 1.2 mg/kg, iv; assay type: ADME, organism-based; parameters: dose 1.2 mg/kg, route intravenous; conditions: in vivo
[12] = Volume of distribution at steady state in Sprague-Dawley rat at 1.8 mg/kg, iv; assay type: ADME, organism-based; parameters: dose 1.8 mg/kg, route intravenous; conditions: in vivo, read-out: Vdss
[13] = biological target: Ribosomal protein S6 kinase beta-1 (Homo sapiens, UniProt P23443); test: Inhibition of p70S6K
[14] = Half life in Sprague-Dawley rat at 1.8 mg/kg, iv; assay type: ADME, organism-based; parameters: dose 1.8 mg/kg, route intravenous; conditions: in vivo
[15] = Oral bioavailability in Sprague-Dawley rat at 1.8 mg/kg; assay type: ADME, organism-based; conditions: in vivo
[16] = biological target: Ribosomal protein S6 kinase alpha-1 (Homo sapiens, UniProt Q15418); test: Inhibition of RSK1
[17] = Clearance in Sprague-Dawley rat at 1.8 mg/kg, iv; assay type: ADME, organism-based; parameters: dose 1.8 mg/kg, route intravenous; conditions: in vivo
[18] = test system: Aorta; test: Inhibition of phenylephrine-induced aortic ring contraction in Sprague-Dawley rat; assay type: functional, tissue-based
[19] = as §1; assay type: ADME, organism-based; parameters: dose 1.1 mg/kg, route intravenous; conditions: Sprague-Dawley, in vivo
[20] = as §2; assay type: ADME, organism-based; parameters: dose 1.1 mg/kg, route intravenous; conditions: Sprague-Dawley, in vivo, read-out: Vdss
[21] = Clearance in Sprague-Dawley rat at 1.1 mg/kg, iv; assay type: ADME, organism-based; parameters: dose 1.1 mg/kg, route intravenous; conditions: in vivo
[22] = Oral bioavailability in monkey; assay type: ADME, organism-based, Macaca mulatta; conditions: rhesus monkey, in vivo
[23] = test system: Rattus norvegicus; test: Decrease in mean arterial pressure in conscious spontaneous hypertensive rat model at 30 mg/kg, po
[24] = Half life in monkey; assay type: ADME, organism-based, Macaca mulatta; conditions: rhesus monkey, in vivo
[25] = Half life in Sprague-Dawley rat at 1.3 mg/kg, iv; assay type: ADME, organism-based; parameters: dose 1.3 mg/kg, route intravenous; conditions: in vivo
[26] = Clearance in Sprague-Dawley rat at 1.3 mg/kg, iv; assay type: ADME, organism-based; parameters: dose 1.3 mg/kg, route intravenous; conditions: in vivo
[27] = Volume of distribution at steady state in Sprague-Dawley rat at 1.3 mg/kg, iv; assay type: ADME, organism-based; parameters: dose 1.3 mg/kg, route intravenous; conditions: in vivo, read-out: Vdss

Sequence of Ribosomal protein S6 kinase beta-1 (P23443 whole entry): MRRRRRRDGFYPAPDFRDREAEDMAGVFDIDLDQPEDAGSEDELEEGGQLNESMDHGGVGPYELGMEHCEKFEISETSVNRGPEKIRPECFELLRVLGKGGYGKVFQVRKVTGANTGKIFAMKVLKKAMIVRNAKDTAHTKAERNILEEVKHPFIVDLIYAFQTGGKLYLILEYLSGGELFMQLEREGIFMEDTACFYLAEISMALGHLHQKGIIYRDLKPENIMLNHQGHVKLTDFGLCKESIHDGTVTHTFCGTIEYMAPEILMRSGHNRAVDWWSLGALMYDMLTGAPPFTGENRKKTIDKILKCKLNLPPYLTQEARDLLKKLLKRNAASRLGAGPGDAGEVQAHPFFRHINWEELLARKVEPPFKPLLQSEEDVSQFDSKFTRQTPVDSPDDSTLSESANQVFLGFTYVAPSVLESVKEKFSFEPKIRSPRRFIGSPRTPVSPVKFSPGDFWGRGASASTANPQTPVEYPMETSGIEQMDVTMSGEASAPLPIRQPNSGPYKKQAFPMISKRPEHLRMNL
Sequence of Rho-associated protein kinase 1 (Q13464 whole entry): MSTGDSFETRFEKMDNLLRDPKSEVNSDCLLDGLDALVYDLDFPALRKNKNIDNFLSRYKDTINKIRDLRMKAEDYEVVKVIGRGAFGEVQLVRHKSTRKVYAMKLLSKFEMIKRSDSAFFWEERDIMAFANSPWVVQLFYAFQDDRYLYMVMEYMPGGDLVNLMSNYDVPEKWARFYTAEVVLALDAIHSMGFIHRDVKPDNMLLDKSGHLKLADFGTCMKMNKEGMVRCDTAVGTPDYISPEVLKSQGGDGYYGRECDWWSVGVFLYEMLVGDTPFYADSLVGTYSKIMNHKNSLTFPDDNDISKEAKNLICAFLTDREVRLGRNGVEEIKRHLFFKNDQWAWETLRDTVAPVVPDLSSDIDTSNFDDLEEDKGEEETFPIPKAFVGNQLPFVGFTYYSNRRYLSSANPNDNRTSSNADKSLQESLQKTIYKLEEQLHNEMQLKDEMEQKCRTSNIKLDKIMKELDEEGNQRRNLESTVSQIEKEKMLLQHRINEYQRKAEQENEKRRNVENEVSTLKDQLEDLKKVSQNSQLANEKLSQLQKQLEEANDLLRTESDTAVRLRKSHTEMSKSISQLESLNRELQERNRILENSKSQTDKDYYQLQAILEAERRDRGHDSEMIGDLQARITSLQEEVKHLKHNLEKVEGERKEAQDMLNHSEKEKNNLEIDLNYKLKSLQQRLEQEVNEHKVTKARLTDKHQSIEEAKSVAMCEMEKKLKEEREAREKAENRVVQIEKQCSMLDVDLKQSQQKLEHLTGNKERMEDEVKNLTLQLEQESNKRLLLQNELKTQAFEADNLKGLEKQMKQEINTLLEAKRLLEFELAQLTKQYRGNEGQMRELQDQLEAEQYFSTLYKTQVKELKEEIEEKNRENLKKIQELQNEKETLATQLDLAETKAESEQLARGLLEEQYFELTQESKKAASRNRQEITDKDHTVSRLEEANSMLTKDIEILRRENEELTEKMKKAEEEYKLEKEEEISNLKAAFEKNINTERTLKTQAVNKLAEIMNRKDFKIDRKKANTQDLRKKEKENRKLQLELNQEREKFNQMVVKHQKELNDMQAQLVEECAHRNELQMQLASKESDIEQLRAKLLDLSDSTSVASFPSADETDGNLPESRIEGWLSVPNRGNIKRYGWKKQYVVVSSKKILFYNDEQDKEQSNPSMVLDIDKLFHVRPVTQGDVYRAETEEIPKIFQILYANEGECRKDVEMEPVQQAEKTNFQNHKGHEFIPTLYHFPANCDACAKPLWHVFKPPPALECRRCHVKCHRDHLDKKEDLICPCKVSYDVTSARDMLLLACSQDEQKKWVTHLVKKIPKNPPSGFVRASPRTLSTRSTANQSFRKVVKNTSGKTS
Sequence of Cytochrome P450 3A4 (P08684 whole entry): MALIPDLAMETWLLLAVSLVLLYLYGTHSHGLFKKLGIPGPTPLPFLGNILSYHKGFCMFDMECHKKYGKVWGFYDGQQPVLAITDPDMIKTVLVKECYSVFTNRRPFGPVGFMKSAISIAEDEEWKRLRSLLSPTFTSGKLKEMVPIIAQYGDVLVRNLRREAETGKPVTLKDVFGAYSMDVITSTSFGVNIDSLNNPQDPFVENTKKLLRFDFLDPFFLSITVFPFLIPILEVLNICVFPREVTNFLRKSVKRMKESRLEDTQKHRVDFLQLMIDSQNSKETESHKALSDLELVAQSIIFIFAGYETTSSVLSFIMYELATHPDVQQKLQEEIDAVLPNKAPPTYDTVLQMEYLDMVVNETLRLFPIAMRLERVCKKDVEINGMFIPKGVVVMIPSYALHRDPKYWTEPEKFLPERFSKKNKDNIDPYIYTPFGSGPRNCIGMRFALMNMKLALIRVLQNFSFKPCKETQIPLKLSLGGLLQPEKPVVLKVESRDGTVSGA
Sequence of Cytochrome P450 2C9 (P11712 whole entry): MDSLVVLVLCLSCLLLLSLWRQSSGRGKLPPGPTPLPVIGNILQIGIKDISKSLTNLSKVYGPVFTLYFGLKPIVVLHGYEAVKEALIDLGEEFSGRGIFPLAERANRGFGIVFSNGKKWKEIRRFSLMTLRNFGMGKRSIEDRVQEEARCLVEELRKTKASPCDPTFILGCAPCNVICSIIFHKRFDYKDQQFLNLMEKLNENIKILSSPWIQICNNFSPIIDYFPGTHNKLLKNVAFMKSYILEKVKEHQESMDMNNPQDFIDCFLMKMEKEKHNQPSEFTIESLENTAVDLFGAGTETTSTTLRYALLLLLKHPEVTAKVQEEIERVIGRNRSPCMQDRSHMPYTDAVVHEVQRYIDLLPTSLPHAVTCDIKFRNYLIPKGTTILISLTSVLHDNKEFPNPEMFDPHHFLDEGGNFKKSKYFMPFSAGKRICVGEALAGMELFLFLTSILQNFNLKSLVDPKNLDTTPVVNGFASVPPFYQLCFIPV
Sequence of Cytochrome P450 2D6 (P10635 whole entry): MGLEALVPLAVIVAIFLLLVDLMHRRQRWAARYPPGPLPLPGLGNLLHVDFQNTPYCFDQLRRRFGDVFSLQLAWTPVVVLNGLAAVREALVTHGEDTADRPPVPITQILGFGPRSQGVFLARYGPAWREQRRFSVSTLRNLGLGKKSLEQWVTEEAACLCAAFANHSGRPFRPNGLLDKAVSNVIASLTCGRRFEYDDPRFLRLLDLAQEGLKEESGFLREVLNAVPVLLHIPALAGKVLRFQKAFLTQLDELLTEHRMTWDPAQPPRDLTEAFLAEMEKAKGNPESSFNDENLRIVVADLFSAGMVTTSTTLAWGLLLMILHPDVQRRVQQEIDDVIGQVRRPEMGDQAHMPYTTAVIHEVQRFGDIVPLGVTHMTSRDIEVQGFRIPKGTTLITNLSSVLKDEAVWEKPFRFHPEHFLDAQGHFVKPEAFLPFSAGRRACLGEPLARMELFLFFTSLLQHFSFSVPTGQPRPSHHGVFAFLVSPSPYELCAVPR
Sequence of Ribosomal protein S6 kinase alpha-1 (Q15418 whole entry): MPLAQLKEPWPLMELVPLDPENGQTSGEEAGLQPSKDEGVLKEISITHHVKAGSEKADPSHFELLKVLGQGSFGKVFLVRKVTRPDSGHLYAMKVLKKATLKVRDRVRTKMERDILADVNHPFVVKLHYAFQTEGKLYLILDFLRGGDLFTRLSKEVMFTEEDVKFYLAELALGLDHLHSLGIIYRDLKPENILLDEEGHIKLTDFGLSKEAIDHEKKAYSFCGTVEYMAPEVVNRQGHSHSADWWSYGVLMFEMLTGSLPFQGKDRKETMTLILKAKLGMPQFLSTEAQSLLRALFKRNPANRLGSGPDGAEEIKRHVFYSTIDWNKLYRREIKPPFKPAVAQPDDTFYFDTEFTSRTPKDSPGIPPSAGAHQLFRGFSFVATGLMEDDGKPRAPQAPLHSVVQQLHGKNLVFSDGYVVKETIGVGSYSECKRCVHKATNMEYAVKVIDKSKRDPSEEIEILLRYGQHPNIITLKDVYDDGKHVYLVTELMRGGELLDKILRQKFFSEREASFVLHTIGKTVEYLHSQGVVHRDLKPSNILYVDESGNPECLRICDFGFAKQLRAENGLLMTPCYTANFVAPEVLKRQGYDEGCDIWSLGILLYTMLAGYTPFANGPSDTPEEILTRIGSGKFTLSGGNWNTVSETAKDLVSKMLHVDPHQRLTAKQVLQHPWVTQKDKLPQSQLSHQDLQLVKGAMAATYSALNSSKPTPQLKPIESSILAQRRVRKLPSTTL

SMILES: CC1=C(C(=O)Nc2ccc3[nH]ncc3c2)C(c2ccc(F)cc2)N=C(c2cccc(C)c2)N1 (configuration not stated)
IC50 [1]: 129 nM

SMILES: COc1ccc(C2=NC(c3ccc(S(C)(=O)=O)cc3)C(C(=O)Nc3ccc4[nH]ncc4c3)=C(C)N2)cc1 (configuration not stated)
IC50 [1]: 150 nM

SMILES: CC1=C(C(=O)Nc2ccc3[nH]ncc3c2)C(c2ccc(F)cc2)N=C(c2cnccn2)N1 (configuration not stated)
IC50 [1]: 105 nM

SMILES: COc1cc(C2=NC(c3ccc(Cl)cc3F)C(C(=O)Nc3ccc4[nH]ncc4c3)=C(C)N2)ccn1 (configuration not stated)
t1/2 [3]: 34 min | bioavailability [4]: 21% | IC50 [5]: 4.3 µM | Vdss [6]: 2 L/kg | IC50 [1]: 2 nM | IC50 [7]: 3700 nM

SMILES: CC1=C(C(=O)Nc2ccc3[nH]ncc3c2)C(c2ccc(F)cc2)N=C(c2cccc(C(F)(F)F)c2)N1 (configuration not stated)
IC50 [1]: 288 nM

SMILES: COc1ccc(C2=NC(c3ccc(Cl)cc3F)C(C(=O)Nc3ccc4[nH]ncc4c3)=C(C)N2)cn1 (configuration not stated)
bioavailability [4]: 27% | IC50 [5]: 2.5 µM | IC50 [1]: 3 nM | IC50 [7]: 1200 nM

SMILES: CC1=C(C(=O)Nc2ccc3[nH]ncc3c2)C(c2ccc(F)cc2)N=C(c2ccccn2)N1 (configuration not stated)
IC50 [1]: 180 nM

SMILES: CC1=C(C(=O)Nc2ccc3[nH]ncc3c2)C(c2ccc(F)cc2)N=C(c2ccccc2)N1 (configuration not stated)
Vd [12]: 0.8 L/kg | IC50 [5]: 0.35 µM | IC50 [1]: 105 nM | IC50 [13]: 4500 nM | IC50 [8]: 640 nM | half-life [14]: 60 min | bioavailability [15]: 16% | IC50 [16]: 5300 nM | clearance [17]: 15 mL/min/kg | IC50 [7]: 90 nM | IC50 [18]: 1300 nM

SMILES: COc1ccc(C2=NC(C)C(C(=O)Nc3ccc4[nH]ncc4c3)=C(C)N2)cc1 (configuration not stated)
IC50 [1]: 863 nM

SMILES: CC1=C(C(=O)Nc2ccc3[nH]ncc3c2)C(c2ccc(F)cc2)N=C(c2ccc(Cl)cc2)N1 (configuration not stated)
IC50 [1]: 129 nM

SMILES: CC1=C(C(=O)Nc2ccc3[nH]ncc3c2)C(c2ccc(F)cc2)NC(=O)N1 (configuration not stated) [GSK-180736A]
half-life [25]: 42 min | clearance [26]: 49 mL/min/kg | Vd [27]: 2.2 L/kg | IC50 [18]: 760 nM

More lines, in order of falling IC50 [1], values ahead:

IC50 [1]: 104 nM
SMILES: CC1=C(C(=O)Nc2ccc3[nH]ncc3c2)C(c2ccc(F)cc2)N=C(c2ccc(C)c(F)c2)N1 (configuration not stated)

IC50 [1]: 101 nM
SMILES: CC1=C(C(=O)Nc2ccc3[nH]ncc3c2)C(c2ccc(F)cc2)N=C(c2ccc(C)cc2)N1 (configuration not stated)

IC50 [1]: 75 nM
SMILES: CC1=C(C(=O)Nc2ccc3[nH]ncc3c2)C(c2ccc(F)cc2)N=C(c2ccc(C(F)(F)F)nc2)N1 (configuration not stated) [GSK-317354A]

IC50 [1]: 68 nM
SMILES: COc1ccc(C2=NC(c3ccc(S(N)(=O)=O)cc3)C(C(=O)Nc3ccc4[nH]ncc4c3)=C(C)N2)cc1 (configuration not stated)

bioavailability [2]: 35% | half-life [9]: 169 min | IC50 [1]: 46 nM | Vd [10]: 5.1 L/kg | clearance [11]: 55 mL/min/kg
SMILES: COc1ccc(C2=NC(c3ccc(F)cc3)C(C(=O)Nc3ccc4[nH]ncc4c3)=C(C)N2)cc1 (configuration not stated)

IC50 [1]: 26 nM
SMILES: COc1ccc(C2=NC(c3ccc(C(F)(F)F)cc3F)C(C(=O)Nc3ccc4[nH]ncc4c3)=C(C)N2)cc1 (configuration not stated)

IC50 [1]: 15 nM
SMILES: CC1=C(C(=O)Nc2ccc3[nH]nc(C)c3c2)C(c2ccc(Cl)cc2F)N=C(c2ccnc(Cl)c2)N1 (configuration not stated)

IC50 [1]: 11 nM
SMILES: CCOc1cc(C2=NC(c3ccc(Cl)cc3F)C(C(=O)Nc3cc4cn[nH]c4cc3F)=C(C)N2)ccn1 (configuration not stated)

IC50 [1]: 10 nM
SMILES: CC1=C(C(=O)Nc2cc3cn[nH]c3cc2F)C(c2ccc(Cl)cc2F)N=C(c2ccnc(C)c2)N1 (configuration not stated)

bioavailability [2]: 0% | IC50 [1]: 8 nM
SMILES: CC1=C(C(=O)Nc2ccc3[nH]ncc3c2)C(c2ccc(F)cc2)N=C(c2ccncc2)N1 (configuration not stated)

t1/2 [3]: 46 min | bioavailability [4]: 53% | IC50 [5]: 5.3 µM | Vdss [6]: 2.5 L/kg | IC50 [1]: 6 nM | IC50 [8]: 8400 nM | IC50 [7]: 2100 nM
SMILES: COc1cc(C2=NC(c3ccc(Cl)cc3F)C(C(=O)Nc3cc4cn[nH]c4cc3F)=C(C)N2)ccn1 (configuration not stated)

t1/2 [3]: 105 min | bioavailability [22]: 19% | bioavailability [4]: 49% | half-life [24]: 132 min | Vdss [6]: 2 L/kg | IC50 [1]: 6 nM | IC50 [13]: 1000 nM | IC50 [8]: 2500 nM | IC50 [16]: 398 nM | IC50 [7]: 5200 nM | IC50 [18]: 256 nM
SMILES: CC1=C(C(=O)Nc2cc3cn[nH]c3cc2F)C(c2ccc(Cl)cc2F)N=C(c2ccnc(Cl)c2)N1 (configuration not stated)
Activity [23]: 25 mmHg

half-life [19]: 68 min | bioavailability [4]: 58% | IC50 [5]: 2.7 µM | Vd [20]: 6.46 L/kg | IC50 [1]: 5 nM | IC50 [13]: 2100 nM | IC50 [16]: 510 nM | IC50 [7]: 200 nM | clearance [21]: 108 mL/min/kg | IC50 [18]: 200 nM
SMILES: COc1ccc(C2=NC(c3ccc(Cl)cc3F)C(C(=O)Nc3ccc4[nH]ncc4c3)=C(C)N2)cc1 (configuration not stated)

t1/2 [3]: 62 min | bioavailability [4]: 7% | IC50 [5]: 5.5 µM | Vdss [6]: 1.6 L/kg | IC50 [1]: 4 nM | IC50 [7]: 5700 nM
SMILES: CC1=C(C(=O)Nc2ccc3[nH]ncc3c2)C(c2ccc(Cl)cc2F)N=C(c2ccnc(Cl)c2)N1 (configuration not stated)
